Experiment [1] has as its system Rattus norvegicus. As to the kind of experiment: Protective activity against isoniazid and rifampicin-induced hepatotoxicity in Wistar rat assessed as reduction of MDA level at 2.5 mg/kg, po (reference value: 30.5 +/- 7.8 nM/mg). In kind it is functional.
In experiment [2] the test system is Rattus norvegicus. As to the kind of experiment: Protective activity against isoniazid and rifampicin-induced hepatotoxicity in Wistar rat assessed as increase of GSH activity at 2.5 mg/kg, po (reference value: 29.4 +/- 11.4 uM/gram). The class given is functional.
Experiment [3] concerns Rattus norvegicus. The experiment can be described thus: Protective activity against isoniazid and rifampicin-induced hepatotoxicity in Wistar rat assessed as reduction of serum AST level at 2.5 mg/kg, po (reference value: 168.5 +/- 14.7 U). In kind it is functional.
The species entered for experiment [4] is Rattus norvegicus. The experiment can be described thus: Protective activity against isoniazid and rifampicin-induced hepatotoxicity in Wistar rat assessed as decrease of CYP2E1 mRNA expression in liver. In kind it is functional, organism-based.
For experiment [5], the species on record is Rattus norvegicus. The experiment can be described thus: Protective activity against isoniazid and rifampicin-induced hepatotoxicity in Wistar rat by haematoxylin and eosin staining. In kind it is functional, organism-based.
Experiment [6] relates to Rattus norvegicus. The experiment can be described thus: Protective activity against isoniazid and rifampicin-induced hepatotoxicity in Wistar rat assessed as reduction of serum ALT level at 2.5 mg/kg, po (reference value: 143.7 +/- 12.5 U). In kind it is functional.
The test system of experiment [7] is Rattus norvegicus. The experiment can be described thus: Protective activity against isoniazid and rifampicin-induced hepatotoxicity in Wistar rat assessed as increase of SOD activity at 2.5 mg/kg, po (reference value: 31.4 +/- 8.3 U/mg). In kind it is functional.

Activity calls are given as the source filed them. The calls are words filed in the database; no cut-off is given here.

`O=C(O)/C=C/c1ccc(O)c(O)c1` [CAFFEIC ACID]: the Activity amounted to 23.5 nM/mg in the experiment on Rattus norvegicus [1]; 42.9 µmol/g in the experiment on Rattus norvegicus [2]; 115.6 U in the experiment with Rattus norvegicus [3]; 102.9 U with Rattus norvegicus [6]; 48 U/mg with Rattus norvegicus [7]. Further, the result in the experiment filed under Rattus norvegicus [4] and in the experiment filed under Rattus norvegicus [5] was Active.

Turning to `O=C(/C=C/c1ccc(O)c(O)c1)NCCc1ccc(O)c(O)c1`, the Activity with Rattus norvegicus [1] came out at 14.8 nM/mg; in the experiment with Rattus norvegicus [2], 49 µmol/g; in the experiment with Rattus norvegicus [3], 86.4 U; in the experiment with Rattus norvegicus [6] it was 80.6 U; in the experiment on Rattus norvegicus [7], 57 U/mg. Besides, the outcome in the experiment listed under Rattus norvegicus [4] and in the experiment filed under Rattus norvegicus [5] was Active.

The values are drawn from ChEMBL document CHEMBL3627675, “Protective effects of the bioactive natural product N-trans-Caffeoyldopamine on hepatotoxicity induced by isoniazid and rifampicin” (2015).
